US20250195403A1, “SKIN WHITENING, ANTI-BACTERIAL OR ANTI-ATOPIC COMPOSITION, CONTAINING SYZYGIUM FORMOSUM EXTRACT AS ACTIVE INGREDIENT” (CARBOEXPERT INC., priority 2018, published 2025)

What was measured:
tyrosinase [1] = experiment: Tyrosinase inhibitory activity using L-DOPA; format: biochemical; details: substrate L-DOPA, 25° C., 5 minutes, 475 nm
Method: Tyrosinase inhibitory activity was confirmed using L-DOPA.
• Tyrosinase solution: Tyrosinase was dissolved in 0.1M PBS (Phosphate buffered saline) buffer to prepare a solution having a concentration of 110 U/ml. • Substrate: L-DOPA was dissolved in 0.1M PBS buffer to be in the concentration of 5 mM. • Sample Usage: Diluted with distilled water to a corresponding concentration and used. • Negative control: Distilled water was added instead of the sample.
Syzygium formosum extract (Example 1, Example 2, and Comparative Examples 1 to 7), 30 μl of negative control (control), 30 μl of positive control (positive control), 70 μl of 0.1M PBS buffer, and 30 μl of substrate were added. Then, 20 μl of tyrosinase was added thereto, and the reaction was performed at a temperature of 25° C. for 5 minutes. After completion of the reaction, absorbance was measured at 475 nm. The tyrosinase inhibitory activity (%) was calculated using Equation 1 by comparing the absorbance of the test group with that of the control group.

tyrosinase [2] = experiment: Tyrosinase inhibitory activity using L-tyrosine; format: biochemical; details: substrate L-tyrosine, sample 0.5 mg/ml, 25° C., 15 minutes, 475 nm
Method: The inhibitory activity of tyrosinase, which is an enzyme that plays an important role in the melanin synthesis process, was confirmed using the Syzygium formosum extract.
500 μl of 1 mM L-tyrosine, 900 μl of 0.1 M phosphate buffer (pH 6.8), and 100 μl of 0.5 mg/ml Syzygium formosum extract dissolved in 10% DMSO (Example 1, Example 2, and Comparative Examples 1 to 7) were mixed, and then 100 μl of tyrosinase (53.7 U/ml) was added thereto and reacted at a temperature of 25° C. for 15 minutes. At this time, DMSO was used as a control group, and 0.5 mg/ml arbutin was used as a positive control group.
The absorbance of the reaction solution was measured at 475 nm for 15 minutes at time intervals of 30 seconds, and then, the tyrosinase inhibitory activity (%) was calculated using Equation 1.

B16F10 cell line = experiment: Melanin production inhibitory activity in B16F10 cells; format: cell-based, mice; details: extract 0.1 mg/ml, 72 hours, 400 nm
Method: The cell line used in the test was B16F10 cell line (Korean Cell Line Bank, Korea), which is a malignant melanoma cell in mice. The cryopreserved cell line was cultured in a culture dish, and after cell line stabilization was confirmed while repeating the subculture twice to three times in the cycle of 2 to 3 days after the first cell culture, cells were cultured in a 48-well plate by the number of cells of 1×10^5/well. Then, the test was prepared by incubating for 24 hours. […] 300 μl of the medium containing each of the sample, the negative control group, and the positive control group was added to a 48-well plate on which cell had been cultured in advance, and cell were cultured for 72 hours at 37° C. under 5% CO2 while the medium was exchanged every day. Thereafter, the medium was removed by washing each well with PBS, and then the cells were treated with 200 μl of 1N NaOH. Thereafter, absorbance was measured at 400 nm using a SpectraMax M2 (Molecular devices, USA). The degree of inhibition on the production of melanin was calculated by comparing the absorbance of the test group with that of the control group treated with the negative control group by using Equation 2. [formula]

OC[C@H]1O[C@@H](Oc2ccc(O)cc2)[C@H](O)[C@@H](O)[C@@H]1O [Arbutin, arbutin]
Inhibitory activity (%) (tyrosinase [1]): 18.6% | Inhibitory activity (%) (tyrosinase [2]): 49.1% | Inhibitory activity (%) (B16F10 cell line): 21.1%
